Measured values reported in the OPERA property sets (Mansouri et al. 2018).

Point of comparison: `O=c1ssc2ccccc12`, logP 2.73. Against it:
- S=c1ssc2c1CCC2 — lower, 2.53
- CCc1ssc(=S)c1-c1ccccc1 — higher, 3.52
- Cc1ssc(=S)c1-c1ccccc1 — higher, 3.17
- Cc1cc(=S)ss1 — lower, 1.89
- CCCc1ssc(=S)c1CC — higher, 3.76
- S=c1cc(Cc2ccccc2)ss1 — higher, 3.43
- O=c1ccss1 — lower, 0.82
- CCc1cc(=O)ss1 — lower, 1.69
- CCCc1cssc1=S — higher, 3.18
- Cc1ssc(=O)c1-c1ccccc1 — higher, 2.93
- CCc1cssc1=S — within 0.2 log units, 2.67
- O=c1cc(-c2ccccc2)ss1 — higher, 3.01
- CCc1cssc1=O — lower, 1.9
- Cc1ccc(-c2cssc2=S)cc1 — higher, 3.73
- CCc1ssc(=O)c1-c1ccccc1 — higher, 3.15
- Cc1ccc(-c2cc(=S)ss2)cc1 — higher, 4.26
- COc1ccc(-c2ssc(=S)c2C)cc1 — higher, 4.1
- CCc1c(C)ssc1=S — higher, 2.94
- CCCc1cssc1=O — lower, 2.38
- Cc1c(-c2ccccc2)ssc1=S — higher, 3.95
- S=c1ssc2c1CCCCCC2 — higher, 3.75
- COc1ccc(-c2cc(=S)ss2)cc1 — higher, 3.82
- Cc1cssc1=S — lower, 2.18
- CCc1ssc(=S)c1C — higher, 2.95
- Cc1ssc(=S)c1C — lower, 2.45
- CCc1ssc(=S)c1CC — higher, 3.51
- S=c1ccss1 — lower, 1.58
- Cc1cssc1=O — lower, 1.33
- CCc1ssc(=O)c1CC — within 0.2 log units, 2.78
- Cc1ssc(=O)c1C — lower, 1.73
- CCCc1c(C)ssc1=O — higher, 2.96
- O=c1ssc2c1CCCC2 — lower, 2.4
- S=c1sscc1-c1ccccc1 — higher, 3.2
- CCCc1cc(=O)ss1 — lower, 2.24
- Cc1cc(=O)ss1 — lower, 1.26
- S=c1cc(-c2ccccc2)ss1 — higher, 3.67
- S=c1ssc2c1CCCCC2 — higher, 3.27
- CCCCCc1cssc1=S — higher, 4.06
- CCCCc1cssc1=S — higher, 3.7
- CCCc1cc(=S)ss1 — within 0.2 log units, 2.83
- CCCc1ssc(=S)c1C — higher, 3.42
- S=c1ssc2ccccc12 — higher, 3.57
- O=c1sscc1-c1ccccc1 — within 0.2 log units, 2.64
- Cc1ssc(=S)c1Cc1ccccc1 — higher, 3.78
- CCCc1c(C)ssc1=S — higher, 3.39
- CCc1cc(=S)ss1 — lower, 2.31
